Experimental data published in BigSolDB 2.1.

Oc1ccc(Cl)c2cccnc12
solubility (mole fraction)
Settings | 278.15 K | 283.15 K | 288.15 K | 293.15 K | 298.15 K | 303.15 K | 308.15 K | 313.15 K | 318.15 K | 323.15 K
in 1,4-dioxane | – | – | 0.0556 | 0.064 | 0.0751 | 0.0875 | 0.102 | 0.119 | 0.14 | 0.161
in 2-ethoxyethanol | 0.0161 | 0.0194 | 0.0249 | 0.0284 | 0.0333 | 0.0398 | 0.0466 | 0.055 | 0.0646 | 0.0768
in ethanol | 0.00253 | 0.00304 | 0.00376 | 0.00468 | 0.00564 | 0.00694 | 0.00839 | 0.0101 | 0.0121 | 0.0145
in n-propyl acetate | 0.015 | 0.0178 | 0.0213 | 0.0251 | 0.0297 | 0.0355 | 0.0416 | 0.0495 | 0.0587 | 0.0696
